Earlier results, collected in patent US20170247647A1, “FLAVOR NANOEMULSIONS AND METHODS OF PREPARING THE SAME” (International Flavors & Fragrances Inc., priority 2014, published 2017).

Experiments:
[1] = commercial surfactant

Molecule	Water Solubility (g/L, approx.)	HLB [1]
CSC [dimethyl sulfide]	insoluble	
CCOC(C)=O [ethyl acetate]	~90 g/L	
CCCC(=O)OCC [ethyl butyrate]	~6 g/L	
CCOC(=O)CC [ethyl propionate]	~14 g/L	
CCCC(=O)OC [methyl butyrate]	~15 g/L	
Tween™ 20		16.7
Tween™ 60		14.9
Tween™ 80		15
